US12655125B2 (SIRONAX LTD., priority 2020, dated 2026)

test system: HT-29 cells; test: HT29 Cells 0FBS Assay In Vitro (TNF-α/SMAC mimetic/zVAD-FMK induced necroptosis, CellTiter-Glo cell viability); type: cell-based; details: Homo sapiens, HT-29, 20 h, read-out: Cell activity (EC50) of Compounds 1-116
How it was run: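 Viability was measured by ATP luminescence (CellTiter-Glo) after 20 h at 37° C of compound exposure in 10-point, 1:3 dilutions. Necroptosis in FBS-free HT-29 cultures was driven by a TNF-α (10 ng/ml), SMAC mimetic (6 μM) and zVAD-FMK (10 μM) cocktail. EC50 values are geometric means from duplicate curves.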

With `CN(C)Cc1cnn(C)c1-c1cc(OC2CN(C(=O)N3N=CC[C@H]3c3cc(F)cc(F)c3)C2)c(F)cn1` [compound 79, (S)-(5-(3,5-difluorophenyl)-4,5-dihydro-1H-pyrazol-1-yl)(3-((2-(4-((dimethylamino)methyl)-1-methyl-1H-pyrazol-5-yl)-5-fluoropyridin-4-yl)oxy)azetidin-1-yl)methanone] as the molecule, how does the EC50 read?
The EC50 was 0.1 to 100 nM.

same assay, conditions: Homo sapiens; HT-29 cells, FBS free medium, TNF-α (10 ng/ml), SMAC mimetic (6 uM), zVAD-FMK (10 μM), 20 hours; geometric mean EC50; read-out: Cell activity (EC50) of Compounds 1-116

For `Cn1ncc(C(=O)N2CCCC2)c1-c1cc(OC2CN(C(=O)N3N=CC[C@H]3c3cc(F)cc(F)c3)C2)c(F)cn1` [compound 75, (S)-(5-(3,5-difluorophenyl)-4,5-dihydro-1H-pyrazol-1-yl)(3-((5-fluoro-2-(1-methyl-4-(pyrrolidine-1-carbonyl)-1H-pyrazol-5-yl)pyridin-4-yl)oxy)azetidin-1-yl)methanone], which EC50 is on record?
Its EC50 is 1000 to 10000 nM.

How did the EC50 turn out when `Cn1ncc(C(=O)N2CCCCC2)c1-c1cc(OC2CN(C(=O)N3N=CC[C@H]3c3cc(F)cc(F)c3)C2)c(F)cn1` [compound 76, (S)-(5-(3,5-difluorophenyl)-4,5-dihydro-1H-pyrazol-1-yl)(3-((5-fluoro-2-(1-methyl-4-(piperidine-1-carbonyl)-1H-pyrazol-5-yl)pyridin-4-yl)oxy)azetidin-1-yl)methanone] was run?
The EC50 was 1000 to 10000 nM.

`Cn1ncc(C(=O)N2CCOCC2)c1-c1cc(OC2CN(C(=O)N3N=CC[C@H]3c3cc(F)cc(F)c3)C2)c(F)cn1` [compound 77, (S)-(5-(3,5-difluorophenyl)-4,5-dihydro-1H-pyrazol-1-yl)(3-((5-fluoro-2-(1-methyl-4-(morpholine-4-carbonyl)-1H-pyrazol-5-yl)pyridin-4-yl)oxy)azetidin-1-yl)methanone] was tested. Which EC50 did it give?
The EC50 was 1000 to 10000 nM.

How did the EC50 turn out when `Cn1ncc(CO)c1-c1cc(OC2CN(C(=O)N3N=CC[C@H]3c3cc(F)cc(F)c3)C2)c(F)cn1` [compound 78, (S)-(5-(3,5-difluorophenyl)-4,5-dihydro-1H-pyrazol-1-yl)(3-((5-fluoro-2-(4-(hydroxymethyl)-1-methyl-1H-pyrazol-5-yl)pyridin-4-yl)oxy)azetidin-1-yl)methanone] was run?
The EC50 was 0.1 to 100 nM.

With `COCc1cnn(C)c1-c1cc(OC2CN(C(=O)N3N=CC[C@H]3c3cc(F)cc(F)c3)C2)c(F)cn1` [compound 80, (S)-(5-(3,5-difluorophenyl)-4,5-dihydro-1H-pyrazol-1-yl)(3-((5-fluoro-2-(4-(methoxymethyl)-1-methyl-1H-pyrazol-5-yl)pyridin-4-yl)oxy)azetidin-1-yl)methanone] as the molecule, how does the EC50 read?
The EC50 was 0.1 to 100 nM.

For `Cn1ncc(F)c1-c1cc(OC2CN(C(=O)N3N=CC[C@H]3c3cc(F)cc(F)c3)C2)c(F)cn1` [compound 81, (S)-(5-(3,5-difluorophenyl)-4,5-dihydro-1H-pyrazol-1-yl)(3-((5-fluoro-2-(4-fluoro-1-methyl-1H-pyrazol-5-yl)pyridin-4-yl)oxy)azetidin-1-yl)methanone], which EC50 is on record?
Its EC50 is 0.1 to 100 nM.

How did the EC50 turn out when `Cn1ncc(F)c1-c1ncc(F)c(OC2CN(C(=O)N3N=CC[C@H]3c3cc(F)cc(F)c3)C2)n1` [compound 82, (S)-(5-(3,5-difluorophenyl)-4,5-dihydro-1H-pyrazol-1-yl)(3-((5-fluoro-2-(4-fluoro-1-methyl-1H-pyrazol-5-yl)pyrimidin-4-yl)oxy)azetidin-1-yl)methanone] was run?
The EC50 was 0.1 to 100 nM.

`Cn1ncc(Cl)c1-c1cc(OC2CN(C(=O)N3N=CC[C@H]3c3cc(F)cc(F)c3)C2)c(F)cn1` [compound 83, (S)-(3-((2-(4-chloro-1-methyl-1H-pyrazol-5-yl)-5-fluoropyridin-4-yl)oxy)azetidin-1-yl)(5-(3,5-difluorophenyl)-4,5-dihydro-1H-pyrazol-1-yl)methanone] was tested. Which EC50 did it give?
Its EC50 is 0.1 to 100 nM.

How did the EC50 turn out when `Cn1ncc(Cl)c1-c1ncc(F)c(OC2CN(C(=O)N3N=CC[C@H]3c3cc(F)cc(F)c3)C2)n1` [compound 84, (S)-(3-((2-(4-chloro-1-methyl-1H-pyrazol-5-yl)-5-fluoropyrimidin-4-yl)oxy)azetidin-1-yl)(5-(3,5-difluorophenyl)-4,5-dihydro-1H-pyrazol-1-yl)methanone] was run?
The EC50 was 0.1 to 100 nM.

Which EC50 does the source give for `Cc1n[nH]cc1-c1cc(OC2CN(C(=O)N3N=CC[C@H]3c3cc(F)cc(F)c3)C2)c(F)cn1` [compound 85, (S)-(5-(3,5-difluorophenyl)-4,5-dihydro-1H-pyrazol-1-yl)(3-((5-fluoro-2-(3-methyl-1H-pyrazol-4-yl)pyridin-4-yl)oxy)azetidin-1-yl)methanone] here?
Its EC50 is 0.1 to 100 nM.

Which EC50 does the source give for `COCCn1cc(-c2cc(OC3CN(C(=O)N4N=CC[C@H]4c4cc(F)cc(F)c4)C3)c(F)cn2)c(C)n1` [compound 86, (S)-(5-(3,5-difluorophenyl)-4,5-dihydro-1H-pyrazol-1-yl)(3-((5-fluoro-2-(1-(2-methoxyethyl)-3-methyl-1H-pyrazol-4-yl)pyridin-4-yl)oxy)azetidin-1-yl)methanone] here?
Its EC50 is 0.1 to 100 nM.

How did the EC50 turn out when `O=C(N1CC(Oc2nc(-c3ccn[nH]3)ncc2F)C1)N1N=CC[C@H]1c1cc(F)cc(F)c1` [compound 87, (S)-(5-(3,5-difluorophenyl)-4,5-dihydro-1H-pyrazol-1-yl)(3-((5-fluoro-2-(1H-pyrazol-5-yl)pyrimidin-4-yl)oxy)azetidin-1-yl)methanone] was run?
Its EC50 is 0.1 to 100 nM.

How did the EC50 turn out when `NC(=O)Cn1nccc1-c1ncc(F)c(OC2CN(C(=O)N3N=CC[C@H]3c3cc(F)cc(F)c3)C2)n1` [compound 88, (S)-2-(5-(4-((1-(5-(3,5-difluorophenyl)-4,5-dihydro-1H-pyrazole-1-carbonyl)azetidin-3-yl)oxy)-5-fluoropyrimidin-2-yl)-1H-pyrazol-1-yl)acetamide] was run?
The EC50 was 100 to 1000 nM.

`NC(=O)Cn1ccc(-c2ncc(F)c(OC3CN(C(=O)N4N=CC[C@H]4c4cc(F)cc(F)c4)C3)n2)n1` [compound 89, (S)-2-(3-(4-((1-(5-(3,5-difluorophenyl)-4,5-dihydro-1H-pyrazole-1-carbonyl)azetidin-3-yl)oxy)-5-fluoropyrimidin-2-yl)-1H-pyrazol-1-yl)acetamide] was tested. Which EC50 did it give?
Its EC50 is 100 to 1000 nM.

`Cc1[nH]ncc1-c1ncc(F)c(OC2CN(C(=O)N3N=CC[C@H]3c3cc(F)cc(F)c3)C2)n1` [compound 90, (S)-(5-(3,5-difluorophenyl)-4,5-dihydro-1H-pyrazol-1-yl)(3-((5-fluoro-2-(5-methyl-1H-pyrazol-4-yl)pyrimidin-4-yl)oxy)azetidin-1-yl)methanone] was tested. Which EC50 did it give?
Its EC50 is 0.1 to 100 nM.

How did the EC50 turn out when `Cc1n[nH]c(C)c1-c1ncc(F)c(OC2CN(C(=O)N3N=CC[C@H]3c3cc(F)cc(F)c3)C2)n1` [compound 91, (S)-(5-(3,5-difluorophenyl)-4,5-dihydro-1H-pyrazol-1-yl)(3-((2-(3,5-dimethyl-1H-pyrazol-4-yl)-5-fluoropyrimidin-4-yl)oxy)azetidin-1-yl)methanone] was run?
The EC50 was 0.1 to 100 nM.

Which EC50 does the source give for `Cc1n[nH]c(C)c1-c1cc(OC2CN(C(=O)N3N=CC[C@H]3c3cc(F)cc(F)c3)C2)c(F)cn1` [compound 92, (S)-(5-(3,5-difluorophenyl)-4,5-dihydro-1H-pyrazol-1-yl)(3-((2-(3,5-dimethyl-1H-pyrazol-4-yl)-5-fluoropyridin-4-yl)oxy)azetidin-1-yl)methanone] here?
The EC50 was 0.1 to 100 nM.

`COCCn1nc(C)c(-c2cc(OC3CN(C(=O)N4N=CC[C@H]4c4cc(F)cc(F)c4)C3)c(F)cn2)c1C` [compound 93, (S)-(5-(3,5-difluorophenyl)-4,5-dihydro-1H-pyrazol-1-yl)(3-((5-fluoro-2-(1-(2-methoxyethyl)-3,5-dimethyl-1H-pyrazol-4-yl)pyridin-4-yl)oxy)azetidin-1-yl)methanone] was tested. Which EC50 did it give?
The EC50 was 0.1 to 100 nM.

Which EC50 does the source give for `Cc1nn(CC(N)=O)c(C)c1-c1cc(OC2CN(C(=O)N3N=CC[C@H]3c3cc(F)cc(F)c3)C2)c(F)cn1` [compound 94, (S)-2-(4-(4-((1-(5-(3,5-difluorophenyl)-4,5-dihydro-1H-pyrazole-1-carbonyl)azetidin-3-yl)oxy)-5-fluoropyridin-2-yl)-3,5-dimethyl-1H-pyrazol-1-yl)acetamide] here?
The EC50 was 0.1 to 100 nM.

How did the EC50 turn out when `Cc1nn(CC(=O)N(C)C)c(C)c1-c1cc(OC2CN(C(=O)N3N=CC[C@H]3c3cc(F)cc(F)c3)C2)c(F)cn1` [compound 95, (S)-2-(4-(4-((1-(5-(3,5-difluorophenyl)-4,5-dihydro-1H-pyrazole-1-carbonyl)azetidin-3-yl)oxy)-5-fluoropyridin-2-yl)-3,5-dimethyl-1H-pyrazol-1-yl)-N,N-dimethylacetamide] was run?
The EC50 was 0.1 to 100 nM.

For `Cc1nn(CC(=O)N2CCOCC2)c(C)c1-c1cc(OC2CN(C(=O)N3N=CC[C@H]3c3cc(F)cc(F)c3)C2)c(F)cn1` [compound 96, (S)-2-(4-(4-((1-(5-(3,5-difluorophenyl)-4,5-dihydro-1H-pyrazole-1-carbonyl)azetidin-3-yl)oxy)-5-fluoropyridin-2-yl)-3,5-dimethyl-1H-pyrazol-1-yl)-1-morpholinoethan-1-one], which EC50 is on record?
The EC50 was 0.1 to 100 nM.

Which EC50 does the source give for `CNC(=O)Cn1nc(C)c(-c2cc(OC3CN(C(=O)N4N=CC[C@H]4c4cc(F)cc(F)c4)C3)c(F)cn2)c1C` [compound 97, (S)-2-(4-(4-((1-(5-(3,5-difluorophenyl)-4,5-dihydro-1H-pyrazole-1-carbonyl)azetidin-3-yl)oxy)-5-fluoropyridin-2-yl)-3,5-dimethyl-1H-pyrazol-1-yl)-N-methylacetamide] here?
The EC50 was 0.1 to 100 nM.

For `CNC(=O)Cn1nc(C)c(-c2ncc(F)c(OC3CN(C(=O)N4N=CC[C@H]4c4cc(F)cc(F)c4)C3)n2)c1C` [compound 98, (S)-2-(4-(4-((1-(5-(3,5-difluorophenyl)-4,5-dihydro-1H-pyrazole-1-carbonyl)azetidin-3-yl)oxy)-5-fluoropyrimidin-2-yl)-3,5-dimethyl-1H-pyrazol-1-yl)-N-methylacetamide], which EC50 is on record?
The EC50 was 0.1 to 100 nM.

How did the EC50 turn out when `Cc1nn(CC(N)=O)c(C)c1-c1ncc(F)c(OC2CN(C(=O)N3N=CC[C@H]3c3cc(F)cc(F)c3)C2)n1` [compound 99, (S)-2-(4-(4-((1-(5-(3,5-difluorophenyl)-4,5-dihydro-1H-pyrazole-1-carbonyl)azetidin-3-yl)oxy)-5-fluoropyrimidin-2-yl)-3,5-dimethyl-1H-pyrazol-1-yl)acetamide] was run?
Its EC50 is 0.1 to 100 nM.
